Assays:
[1] = system: human colorectal cancer cell line HCT116; assay: MTT cell proliferation assay, colorectal cancer cell line HCT116; assay type: cell-based
Text: (§1) As human cancer cell lines, human lung cancer cell lines NCL-H226 and SK-MES-1, human esophageal cancer cell lines KYSE-150 and TE-1, human gastric cancer cell line AGS, human colorectal cancer cell lines HT29 and HCT116, human prostate cancer cell line PC-3, human pancreatic cancer cell lines BxPC-3 and PANC-1, human cervical cancer cell lines SiHa and HeLa, human ovarian cancer cell line SK-OV-3, and human endometrial cancer cell lines Ishikawa, HEC-1A, and HEC-1B were obtained from the Shanghai Cell Bank of Chinese Academy of Sciences. […]
(§2) The effects of Example 1 and Comparative Examples 1 to 3 on cell proliferation were assessed using MTT assay. […] All the crystals were completely dissolved by standing at room temperature for 15 minutes, and the absorbance was measured using a micro-plate reader at a wavelength of 570 nm (A570 nm).
(§3) The absorbance value of the control group treated without the sample was calculated as 100, and the absorbance value of the treatment group treated with the sample, compared with that of the control group, was calibrated, and the percentage of inhibition of cell proliferation was calculated according to the following equation. Percentage (%) of inhibition of cell proliferation=((mean absorbance of control group cells−mean absorbance of treatment group cells)/mean absorbance of control group cells)×100

[2] = system: human esophageal cancer cell line TE-1; assay: MTT cell proliferation assay, esophageal cancer cell line TE-1; assay type: cell-based
Text: as §1, §2, §3

[3] = system: human pancreatic cancer cell line BxPC-3; assay: MTT cell proliferation assay, pancreatic cancer cell line BxPC-3; assay type: cell-based
Text: as §1, §2, §3

[4] = system: human cervical cancer cell line SiHa; assay: MTT cell proliferation assay, cervical cancer cell line SiHa; assay type: cell-based; settings: treatment for 72 hours, read-out: Cancer cell growth inhibition (IC50)
Text: as §1, §2, §3

[5] = system: human lung cancer cell line SK-MES-1; assay: MTT cell proliferation assay, lung cancer cell line SK-MES-1; assay type: cell-based
Text: as §1, §2, §3

[6] = system: human colorectal cancer cell line HT29; assay: MTT cell proliferation assay, colorectal cancer cell line HT29; assay type: cell-based
Text: as §1, §2, §3

[7] = system: human ovarian cancer cell line SK-OV-3; assay: MTT cell proliferation assay, ovarian cancer cell line SK-OV-3; assay type: cell-based; settings: SK-OV-3, treatment for 72 hours, read-out: Cancer cell growth inhibition (IC50)
Text: as §1, §2, §3

[8] = system: human endometrial cancer cell line HEC-1B; assay: MTT cell proliferation assay, endometrial cancer cell line HEC-1B; assay type: cell-based; settings: treatment for 72 hours, read-out: Cancer cell growth inhibition (IC50)
Text: as §1, §2, §3

[9] = system: human prostate cancer cell line PC-3; assay: MTT cell proliferation assay, prostate cancer cell line PC-3; assay type: cell-based; settings: PC-3, treatment for 72 hours, read-out: Cancer cell growth inhibition (IC50)
Text: as §1, §2, §3

[10] = system: human lung cancer cell line NCL-H226; assay: MTT cell proliferation assay, lung cancer cell line NCL-H226; assay type: cell-based
Text: as §1, §2, §3

[11] = system: human gastric cancer cell line AGS; assay: MTT cell proliferation assay, gastric cancer cell line AGS; assay type: cell-based
Text: As human cancer cell lines, human lung cancer cell lines NCL-H226 and SK-MES-1, human esophageal cancer cell lines KYSE-150 and TE-1, human gastric cancer cell line AGS, human colorectal cancer cell lines HT29 and HCT116, human prostate cancer cell line PC-3, human pancreatic cancer cell lines BxPC-3 and PANC-1, human cervical cancer cell lines SiHa and HeLa, human ovarian cancer cell line SK-OV-3, and human endometrial cancer cell lines Ishikawa, HEC-1A, and HEC-1B were obtained from the Shanghai Cell Bank of Chinese Academy of Sciences. The cells were incubated in media supplemented with 10% FBS, 50 U/ml penicillin, and 50 μg/ml streptomycin and suitable for incubation of respective cells (RPMI-1640 (NCL-H226, TE-1, BxPC-3, Ishikawa), MEM (SK-MES-1, SiHa, HeLa, HEC-1B), Ham's F-12K (AGS), Ham's F-12 (PC-3), McCOY's 5A (HT29, HCT116, SK-OV-3, HEC-1A), RPMI-1640:Ham's F-12=1:1(v:v) (KYSE-150), and DMEM (PANC-1)) in a humidified incubator with 5% CO2 and 95% air. The media were exchanged every three days.
as §2, with “assay. MTT assay is based on the ability of viable cells against MTT to produce insoluble dark blue formazan products.” for “assay.”
as §3

[12] = system: human cervical cancer cell line HeLa; assay: MTT cell proliferation assay, cervical cancer cell line HeLa; assay type: cell-based; settings: treatment for 72 hours, read-out: Cancer cell growth inhibition (IC50)
Text: as §1, §2, §3

[13] = system: human pancreatic cancer cell line PANC-1; assay: MTT cell proliferation assay, pancreatic cancer cell line PANC-1; assay type: cell-based
Text: as §1, §2, §3

[14] = system: various cancer cells, such as brain cancer, breast cancer, liver cancer, and skin cancer; assay: Proliferation of other cancer cells (data not shown); assay type: cell-based
[15] = system: human endometrial cancer cell line HEC-1A; assay: MTT cell proliferation assay, endometrial cancer cell line HEC-1A; assay type: cell-based; settings: treatment for 72 hours, read-out: Cancer cell growth inhibition (IC50)
Text: as §1, §2, §3

[16] = system: human endometrial cancer cell line Ishikawa; assay: MTT cell proliferation assay, endometrial cancer cell line Ishikawa; assay type: cell-based; settings: treatment for 72 hours, read-out: Cancer cell growth inhibition (IC50)
Text: as §1, §2, §3

[17] = system: human esophageal cancer cell line KYSE-150; assay: MTT cell proliferation assay, esophageal cancer cell line KYSE-150; assay type: cell-based
Text: as §1, §2, §3

[18] = system: cancer metastasis; settings: animal experiments; cited from earlier work
[19] = system: uterine cancer, bladder cancer, lung cancer, maxillary sinus cancer, kidney cancer; settings: end-stage cancer patients; cited from earlier work

For O1[As]2O[As]3O[As]1O[As](O2)O3 [Example 1, tetraarsenic hexoxide], the IC50 ([1]; Colorectal cancer, HCT116, treatment for 72 hours, read-out: Cancer cell growth inhibition (IC50)) was 5.07 µM, the “percentage of inhibition of cell proliferation according to treatment time” value (“percentage of inhibition … to treatment time” below) ([1]; HCT116, 10 μM, 24, 48, 72 hours (FIG. 6A)) was “increased with the treatment time” and the IC50 ([2]; Esophageal cancer, TE-1, treatment for 72 hours, read-out: Cancer cell growth inhibition (IC50)) was 2.35 µM. For the same compound, the “percentage of inhibition … to treatment time” value ([2]; TE-1, 10 μM, 24, 48, 72 hours (FIG. 4A)) was “increased with the treatment time”, the “percentage of inhibition of cell proliferation according to concentration” value ([3]; BxPC-3, different concentrations, 72 hours (FIG. 8B)) was “increased dependent on the concentration of Example 1” and the IC50 ([3]; Pancreatic cancer, BxPC-3, treatment for 72 hours, read-out: Cancer cell growth inhibition (IC50)) was 4.98 µM. For the same compound, the IC50 [4] was 2.8 µM, the IC50 ([5]; Lung cancer, SK-MES-1, treatment for 72 hours, read-out: Cancer cell growth inhibition (IC50)) was 2.47 µM and the “percentage of inhibition … to treatment time” value ([5]; SK-MES-1, 10 μM, 24, 48, 72 hours (FIG. 3)) was “increased with the treatment time”. For the same compound, the IC50 ([6]; Colorectal cancer, HT29, treatment for 72 hours, read-out: Cancer cell growth inhibition (IC50)) was 1.27 µM, the “percentage of inhibition … to treatment time” value ([6]; HT29, 10 μM, 24, 48, 72 hours (FIG. 6A)) was “increased with the treatment time” and the IC50 [7] was 5.02 µM. It also gave an IC50 [8] of 4.61 µM, an IC50 [9] of 4.98 µM and an IC50 ([10]; Lung cancer, NCL-H226, treatment for 72 hours, read-out: Cancer cell growth inhibition (IC50)) of 5.12 µM. For the same compound, the “percentage of inhibition … to treatment time” value ([10]; NCL-H226, 10 μM, 24, 48, 72 hours (FIG. 3)) was “increased with the treatment time”, the IC50 ([11]; Gastric cancer, treatment for 72 hours, read-out: Cancer cell growth inhibition (IC50)) was 0.9 µM and the “inhibition of cell proliferation according to treatment time and concentration” value ([11]; different concentrations, 24, 48, 72 hours (FIG. 5A)) was “increased with the treatment time at each treatment concentration”. For the same compound, the “percentage of inhibition of gastric cancer cell proliferation at 48 hours” value ([11]; treatment for 48 hours (FIG. 5A)) was “high in spite of the treatment for only 48 hours”, the IC50 [12] was 1.63 µM and the “percentage of inhibition of cell proliferation according to concentration” value ([13]; PANC-1, different concentrations, 72 hours (FIG. 8B)) was “increased dependent on the concentration of Example 1”. The IC50 ([13]; Pancreatic cancer, PANC-1, treatment for 72 hours, read-out: Cancer cell growth inhibition (IC50)) was 5.62 µM, the “inhibition of proliferation of various cancer cells” value [14] was “confirmed to inhibit the proliferation” and the IC50 [15] was 2.47 µM. For the same compound, the IC50 [16] was 2.75 µM, the IC50 ([17]; Esophageal cancer, KYSE-150, treatment for 72 hours, read-out: Cancer cell growth inhibition (IC50)) was 9.85 µM and the “percentage of inhibition … to treatment time” value ([17]; KYSE-150, 10 μM, 24, 48, 72 hours (FIG. 4A)) was “significantly increased in the treatment for 72 hours”.

For O1[As]2O[As]3O[As]1O[As](O2)O3 [tetraarsenic hexoxide], the “cancer metastasis suppressing effects” value [18] is given as “showed cancer metastasis suppressing effects” and the anticancer treatment effects [19] is given as “had excellent anticancer treatment effects”.

From US11191779B2, “Pharmaceutical composition for preventing or treating cancer, comprising tetraarsenic hexoxide crystalline polymorph” (CHEMAS CO., LTD., priority 2016, dated 2021)
